Measured values as given in patent US11160785B2, “Methods and compositions for improving cognitive function” (AgeneBio, Inc., priority 2013, dated 2021).
Where two headings read alike, the source gives them in different places.

Assays:
[1] = tested on: aged-impaired rats (AI); format: in vivo, rat
Description: FIG. 1 depicts the effects of administering levetiracetam on the spatial memory retention of ten aged-impaired rats (AI) in an eight-arm Radial Arm Maze (RAM) test. Six treatment conditions are employed: vehicle control, levetiracetam (1.25 mg/kg/day), levetiracetam (2.5 mg/kg/day), levetiracetam (5 mg/kg/day), levetiracetam (10 mg/kg/day) and levetiracetam (20 mg/kg/day). In the RAM task used, there is a one-hour delay between presentation of a subset of arms (5 arms available and 3 arms blocked) and completion of the eight-arm win-shift task (eight arms available). Rats are pre-treated 30-40 minutes before daily trials with a one-time drug/control treatment. The number of errors made by the rats during the retention phase is used as a measure of spatial memory retention. Errors are defined as instances when rats enter an arm from which food has already been retrieved in the pre-delay component of the trial or when rats re-visit an arm in the post-delay session that had already been visited. Paired t-tests are used to compare the number of errors between different doses of levetiracetam and vehicle control. […]
A Radial Arm Maze (RAM) behavioral task is one example of a cognitive test, specifically testing spacial memory (Chappell et al. Neuropharmacology 37: 481-487, 1998). The RAM apparatus consists of, e.g., eight equidistantly spaced arms. A maze arm projects from each facet of a center platform. A food well is located at the distal end of each arm. Food is used as a reward. Blocks can be positioned to prevent entry to any arm. Numerous extra maze cues surrounding the apparatus may also be provided. After habituation and training phases, spatial memory of the subjects may be tested in the RAM under control or test compound-treated conditions. As a part of the test, subjects are pretreated before trials with a vehicle control or one of a range of dosages of the test compound. At the beginning of each trial, a subset of the arms of the eight-arm maze is blocked. Subjects are allowed to obtain food on the unblocked arms to which access is permitted during this initial “information phase” of the trial. Subjects are then removed from the maze for a delay period, e.g., a 60 second delay, a 15 minute delay, a one-hour delay, a two-hour delay, a six hour delay, a 24 hour delay, or longer) between the information phase and the subsequent “retention test,” during which the barriers on the maze are removed, thus allowing access to all eight arms. […] The identity and configuration of the blocked arms vary across trials. The number of “errors” the subjects make during the retention test phase is tracked. An error occurs in the trial if the subjects entered an arm from which food had already been retrieved in the pre-delay component of the trial, or if it re-visits an arm in the post-delay session that had already been visited. A fewer number of errors would indicate better spatial memory. The number of errors made by the test subject, under various test compound treatment regimes, can then be compared for efficacy of the test compound in treating cognitive impairment associated with CNS disorders.

[2] = tested on: somatostatin in DG hilus; assay: Somatostatin (SOM) immunohistochemistry, hilar interneuron counts in aged-impaired rats; format: in vivo, rat; settings: 10 mg/kg/day, four-week treatment, AI-LEV vs AI-VEH p<0.01, AI-LEV vs Y p=0.679
Description: Tissue was labeled with anti-SOM antiserum (Santa Cruz Biotechnology; cat. no. SC7819-P) using an established immunoperoxidase protocol and tissue sections were processed concurrently to minimize inter-replication variability (Haberman et al., 2009). The anti-SOM antiserum can detect somatostatin. Briefly, sections were washed in 0.1M phosphate-buffered saline (PBS) to remove cryoprotectant, and endogenous peroxidases were quenched in 0.3% H202 in PBS. After additional PBS washes, sections were blocked in 5% normal horse serum in PBS with 0.3% Triton. Sections were then incubated with primary antibody at a dilution of 1:1600 in PBS containing 0.15% Triton and 3% normal serum for 72 hours at 4° C. with agitation. […] The secondary antibody was detected with avidin-biotin complex (ABC Elite; Vector Laboratories Inc., Burlingame, Calif.) and the avidin-biotin complex was visualized with nickel-enhanced diaminobenzadine (Vector Laboratories Inc., Burlingame, Calif.). […]
Interneuron quantification was performed using a Zeiss Axioplan 2 microscope equipped with a motorized stage. […] Neuron counts were analyzed as the total number of hilar interneurons per hippocampal section for each rat.

Compound: CC[C@@H](C(N)=O)N1CCCC1=O [levetiracetam, (2S)-2-(2-oxopyrrolidin-1-yl) butanamide]
- memory performance relative to vehicle control treatment [1]: significantly improves memory performance
- human equivalent dose (HED) of the effective rat dose ([1]; HED for a 70 kg human): 28-56 mg twice a day
- human equivalent dose (HED) of the effective rat dose ([1]; body surface area conversion of 5-10 mg/kg in rats): 0.8 to 1.6 mg/kg/day
- average no. of errors±standard error of the mean (SEM) ([1]; levetiracetam 5 mg/kg/day i.p. 30-40 min before trial, one-hour delay, n=10, vehicle 2.00±0.42): 0.75±0.32
- memory performance relative to vehicle control treatment ([1]; levetiracetam 10 mg/kg/day i.p., one-hour delay, paired t-test t(9)=2.37, p=0.042): significantly improves memory performance
- performance of AI rats in the radial maze task ([1]; levetiracetam 20 mg/kg, FIG. 1): fails to improve the performance of AI rats
- memory performance in AI rats ([1]; rat, in vivo): does not significantly improve the memory performance
- levels of somatostatin in DG hilus (number of SOM-immunoreactive hilar neurons) [2]: restores the levels of somatostatin
